Experimental data published in patent US10214765B2, “Cell-permeable probes for identification and imaging of sialidases” (Academina Sinica, priority 2012, dated 2019).
Read-outs that look alike come from different tables or passages of the source.

System: oseltamivir-sensitive (WSN^274H) and oseltamivir-resistant (WSN^274Y) H1N1 influenza viruses
Assay type: binding, H1N1 influenza virus

C#CCCC(=O)NC1C(O)C(F)C(F)(C(=O)O)OC1[C@H](O)[C@H](O)CO (stereo partly drawn) [DFSA-5-yne, 5-(Pent-4-ynamido)-2,3,5-trideoxy-3-fluoro-D-erythro-β-L-manno-non-2-ulopyranosylonic fluoride]
labeling of OS^s and OS^r H1N1 influenza viruses (in the absence of OS): labeled | labeling of OS^s and OS^r H1N1 influenza viruses (in the presence of competing OS): only the OS^r virus was detectable
